Structures can show the parent of a compound that is named as a salt.
Molecular target: T1, human orexin-2 (hOX2) receptors (Homo sapiens, UniProt O43614)
T1 construct: expressed in transfected cells
T1 sequence (O43614 1-444): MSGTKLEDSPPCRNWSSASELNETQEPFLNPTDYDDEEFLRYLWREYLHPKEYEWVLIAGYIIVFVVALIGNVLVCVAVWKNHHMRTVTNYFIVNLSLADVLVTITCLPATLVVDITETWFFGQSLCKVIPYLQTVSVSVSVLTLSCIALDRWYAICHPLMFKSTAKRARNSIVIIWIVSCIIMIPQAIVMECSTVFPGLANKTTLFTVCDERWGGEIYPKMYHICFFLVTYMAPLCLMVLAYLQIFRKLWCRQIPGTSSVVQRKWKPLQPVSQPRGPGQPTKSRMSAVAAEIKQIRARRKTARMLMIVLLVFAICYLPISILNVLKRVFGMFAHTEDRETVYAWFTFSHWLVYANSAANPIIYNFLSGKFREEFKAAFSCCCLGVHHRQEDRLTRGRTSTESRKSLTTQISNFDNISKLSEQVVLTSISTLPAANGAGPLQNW
Test: Intracellular Ca2+ mobilization assay (FLIPR), antagonism of orexin-A
Assay type: cell-based
Conditions: CHO(dHFr-) cells stably expressing hOX2; orexin-A at EC80 as agonist; antagonist applied 25 min before; Kb=IC50/(1+[A]/EC50); read-out: Kb (μM) OX2R (human)
Protocol: Intracellular Ca^2+ Mobilization Assay
The Chinese Hamster Ovary (dHFr—) mutant cell line stably expressing human orexin-1 (hOX1) or human orexin-2 (hOX2) receptors were maintained in Dulbecco's Modified Eagle Medium (1X) with GlutaMax™ 1, 4500 mg/L D-Glucose and Sodium Pyruvate (Catalog No. 31966-021, Invitrogen, Carlsbad, Calif.), 5% dialyzed fetal calf serum (Catalog No. 26400-044), 100 μg/ml penicillin and 100 μg/ml streptomycin. The cells were seeded at 5×10^4 cells/well in the poly-D-lysine treated, 96-well, black/clear-bottomed plates (Catalog No. BD356640, BD Biosciences, Palo Alto, Calif.). 24 h later, the cells were loaded for 1 h at 37° C. with 4 μM Flou-4 acetoxymethyl ester (Catalog No. F-14202, Molecular Probes, Eugene, Oreg.) in FLIPR buffer (1×HBSS, 20 mM HEPES, 2.5 mM Probenecid). Hanks' Balanced Salt Solution (HBSS) (10×) (catalog No. 14065-049) and HEPES (1M) (catalog No. 15630-056) were purchased from Invitrogen, Carlsbad, Calif. Probenecid (250 mM) (catalog No. P8761) was from Sigma, Buchs, Switzerland. The cells were washed five times with FLIPR buffer to remove excess dye and intracellular calcium mobilization, [Ca^2+]i were measured using a Fluorometric Imaging Plate Reader (FLIPR-96, Molecular Devices, Menlo Park, Calif.) as described previously (Malherbe et al., Mol. Pharmacol., 64, 823-832, 2003). Orexin A (catalog No. 1455, Toris Cookson Ltd, Bristol, UK) was used as agonist. Orexin A (50 mM stock solution in DMSO) was diluted in FLIPR buffer +0.1% BSA. The EC50 and EC80 values of orexin-A were measured daily from standard agonist concentration-response curves in CHO(dHFr—)—OX1R and —OX2R cell lines. All compounds were dissolved in 100% DMSO. Inhibition curves were determined by addition of 11 concentrations (0.0001-10 μM) of inhibitory compounds and using EC80 value of orexin-A as agonist (a concentration which gave 80% of max agonist response, determined daily). The antagonists were applied 25 min (incubation at 37° C.) before the application of the agonist. Responses were measured as peak increase in fluorescence minus basal, normalized to the maximal stimulatory effect induced by EC80 value of orexin-A or orexin- B. Inhibition curves were fitted according to the Hill equation: y=100/(1+(x/IC50)^nH), where nH=slope factor using Excel-fit 4 software (Microsoft). Kb values were calculated according to the following equation Kb=IC50/(1+[A]/EC50) where A is the concentration of agonist added which is very close to agonist EC80 value, and IC50 and EC50 values were derived from the antagonist inhibition and orexin-A or B agonist curves, respectively.

Molecule | Kb
O=C([C@@H](O)c1ccccc1)N(CCc1ccc(C(F)(F)F)nc1)c1ccc2c(c1)[C@@H](O)CCO2 [Example 63, (S)-2-Hydroxy-N-((S)-4-hydroxy-chroman-6-yl)-2-phenyl-N-[2-(6-trifluoromethyl-pyridin-3-yl)-ethyl]-acetamide] | 0.0243 µM
CC(=O)O[C@H](C(=O)N(CCc1ccc(C(F)(F)F)cn1)c1ccc(C)c(C)c1)c1ccccc1 [Example 65, Acetic acid (S)-{(3,4-dimethyl-phenyl)-[2-(5-trifluoromethyl-pyridin-2-yl)-ethyl]-carbamoyl}-phenyl-methyl ester] | 0.0475 µM
Cc1ccc(N(CCc2ccc(Cl)cn2)C(=O)[C@@H](O)c2ccccc2)cc1C [Example 66, (S)—N-[2-(5-Chloro-pyridin-2-yl)-ethyl]-N-(3,4-dimethyl-phenyl)-2-hydroxy-2-phenyl-acetamide] | 0.0057 µM
Cc1csc(CCN(C(=O)[C@@H](N)c2ccccc2)c2ccc(C)c(C)c2)n1 [Example 67, (S)-2-Amino-N-(3,4-dimethyl-phenyl)-N-[2-(4-methyl-thiazol-2-yl)-ethyl]-2-phenyl-acetamide hydrochloride] | 0.073 µM
Cc1ccc(N(CCc2ccc(F)cn2)C(=O)[C@@H](O)c2ccccc2)cc1C [Example 68, (S)—N-(3,4-Dimethyl-phenyl)-N-[2-(5-fluoro-pyridin-2-yl)-ethyl]-2-hydroxy-2-phenyl-acetamide] | 0.0232 µM
Cc1cc(CCN(C(=O)[C@@H](O)c2ccccc2)c2ccc(C)c(C)c2)on1 [Example 70, (S)—N-(3,4-Dimethyl-phenyl)-2-hydroxy-N-[2-(3-methyl-isoxazol-5-yl)-ethyl]-2-phenyl-acetamide] | 0.0863 µM
Cc1ccc(N(CCc2ccc(C(F)(F)F)cn2)C(=O)[C@@H](O)c2ccc(F)cc2)cc1F [Example 80, (S)—N-(3-Fluoro-4-methyl-phenyl)-2-(4-fluoro-phenyl)-2-hydroxy-N-[2-(5-trifluoromethyl-pyridin-2-yl)-ethyl]-acetamide] | 0.0289 µM
Cc1cc(N(CCc2ccc(C(F)(F)F)cn2)C(=O)[C@@H](O)c2ccc(F)cc2)ccc1F [Example 81, (S)—N-(4-Fluoro-3-methyl-phenyl)-2-(4-fluoro-phenyl)-2-hydroxy-N-[2-(5-trifluoromethyl-pyridin-2-yl)-ethyl]-acetamide] | 0.0197 µM
(S)-2-Hydroxy-N-(3-methoxy-phenyl)-2-phenyl-N-[2-(6-trifluoromethyl-pyridin-3-yl)-ethyl]-acetamide [Example 58] | 0.0167 µM

More lines, now with the values ahead:

Kb | Molecule
0.0378 µM | O=C([C@@H](O)c1ccc(F)cc1)N(CCc1ccc(C(F)(F)F)cn1)c1ccc2c(c1)CCC2 [Example 86, (S)-2-(4-Fluoro-phenyl)-2-hydroxy-N-indan-5-yl-N-[2-(5-trifluoromethyl-pyridin-2-yl)-ethyl]-acetamide]
0.0198 µM | O=C([C@@H](O)c1ccc(F)cc1)N(CCc1ccc(C(F)(F)F)cn1)c1ccc2c(c1)CCO2 [Example 87, (S)—N-(2,3-Dihydro-benzofuran-5-yl)-2-(4-fluoro-phenyl)-2-hydroxy-N-[2-(5-trifluoromethyl-pyridin-2-yl)-ethyl]-acetamide]
0.0146 µM | COc1cc(N(CCc2ccc(C(F)(F)F)cn2)C(=O)[C@@H](O)c2ccc(F)cc2)ccc1F [Example 92, (S)—N-(4-Fluoro-3-methoxy-phenyl)-2-(4-fluoro-phenyl)-2-hydroxy-N-[2-(5-trifluoromethyl-pyridin-2-yl)-ethyl]-acetamide]
0.0249 µM | Cc1n[nH]c2ccc(N(CCc3ccc(C(F)(F)F)nc3)C(=O)[C@@H](O)c3ccc(F)cc3)cc12 [Example 106, (S)-2-(4-Fluoro-phenyl)-2-hydroxy-N-(3-methyl-1H-indazol-5-yl)-N-[2-(6-trifluoromethyl-pyridin-3-yl)-ethyl]-acetamide]
0.0046 µM | Cc1nn(C)c2ccc(N(CCc3ccc(C(F)(F)F)nc3)C(=O)[C@@H](O)c3ccc(F)cc3)cc12 [Example 107, (S)—N-(1,3-Dimethyl-1H-indazol-5-yl)-2-(4-fluoro-phenyl)-2-hydroxy-N-[2-(6-trifluoromethyl-pyridin-3-yl)-ethyl]-acetamide]
